From ChEMBL document CHEMBL1201862, “PubChem BioAssay data set” (2004) come the findings set out here.

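Following 48 hours of exposure in 96-well plates, responses at five concentrations were used to interpolate endpoints linearly. Abbreviation: GI50, concentration required for 50% inhibition of growth.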 Calls of active or inactive are those of the source. Cut-off read from the data, not from the text of the source: active = GI50 up to about 1.1 µM and inactive = higher. Bounds are passed on as bounds.

Experiment in all cases: growth of human tumour cells (NCI), 48 h
In assay [1] the test system is OVCAR-3.
Assay [2] relates to OVCAR-5.
The subject of assay [3] is PC-3.
Assay [4] concerns NCI-H226.
Assay [5] has as its system SF-295.
Assay [6] deals with DU-145.
Assay [7] has as its system A498.
Assay [8] has as its system HCT-15.
Assay [9] relates to MDA-N.
In assay [10] the test system is SK-MEL-28.
Assay [11] relates to SNB-19.
Assay [12] deals with SW-620.
Assay [13] relates to TK-10.
The test system of assay [14] is IGROV-1.
The test system of assay [15] is U-251.
The test system of assay [16] is NCI-H23.
Assay [17] relates to HCT-116.
Assay [18] relates to A549.
Assay [19] deals with UACC-62.
The test system of assay [20] is MDA-MB-435.

Consider `Cc1cc(C)c2c(c1)C/C(=C\c1ccccc1C(=O)O)C2=O`, for which the GI50 was 23.7 µM (inactive) in assay [1]; > 100 µM (inactive) in assay [2]; > 100 µM (inactive) in assay [3]; 56.9 µM (inactive) in [4]; > 100 µM (inactive) in assay [5]; > 100 µM (inactive) in assay [6]. The GI50 in assay [7] was 51.5 µM (inactive); in [8], 47.4 µM; in assay [9], > 100 µM (inactive); in assay [10], > 100 µM (inactive); in assay [11] it was > 100 µM (inactive); in [12], > 100 µM (inactive). Also, the GI50 was > 100 µM (inactive) in assay [13]; > 100 µM (inactive) in assay [14]; 7.46 µM (inactive) in assay [15]; > 100 µM (inactive) in [16]; 76.6 µM (inactive) in assay [17]; 68.4 µM (inactive) in assay [18].

With `COc1cc(/C=N\NC(=O)C[N+](C)(C)C)cc(OC)c1OC`, the GI50 in assay [1], in assay [19], in assay [2], in assay [3], in assay [5] and in assay [6] was > 10 µM (inactive) in each case. Besides, the GI50 is > 10 µM in assay [8]; > 10 µM (inactive) in assay [9]; > 10 µM (inactive) in assay [10]; > 10 µM (inactive) in assay [11]; > 10 µM (inactive) in assay [12]; > 10 µM (inactive) in assay [13]. Also, the GI50 in [20], in assay [14], in assay [15], in assay [16], in [17] and in [18] was > 10 µM (inactive) in each case.

Regarding `O=C1CSC(c2cccc(Cl)c2)N1c1ccc(-n2c(-c3ccccc3)nc3ccccc3c2=O)cc1` (stereo not given), the GI50 in assay [1] was > 100 µM (inactive); in assay [19], 21.4 µM (inactive); in assay [2], > 100 µM (inactive); in assay [3] it was 51.3 µM (inactive); in assay [5], > 100 µM (inactive); in [6] it was > 100 µM (inactive). Also, the GI50 in [7] was 94.8 µM (inactive); in assay [8], 15.8 µM; in [9] it was > 100 µM (inactive); in assay [10], > 100 µM (inactive); in assay [11] it was > 100 µM (inactive); in assay [12] it was > 100 µM (inactive). In addition, the GI50 in [13] is > 100 µM (inactive); in assay [20], 45.8 µM (inactive); in [14] it was 59.2 µM (inactive); in assay [15], 29 µM (inactive); in assay [16] it was > 100 µM (inactive); in assay [17] it was 53 µM (inactive). The GI50 in assay [18] is > 100 µM (inactive).

Consider `C[C@H]1OC(=O)[C@@H]2N=NN(Cc3ccccc3)[C@H]12`, for which the GI50 in assay [1], in [19], in assay [2], in [3], in assay [5] and in [6] was > 100 µM (inactive) throughout. Besides, the GI50 was > 100 µM (inactive) in [7]; > 100 µM in [8]; > 100 µM (inactive) in [9]; > 100 µM (inactive) in [10]; > 100 µM (inactive) in assay [11]; > 100 µM (inactive) in assay [12]. The GI50 in assay [13], in assay [20], in assay [15], in assay [16], in assay [17] and in [18] was > 100 µM (inactive) each time.

For the molecule `Cc1ccc(/N=N/C(=NNC(=O)c2ccc(C)cc2)c2ccc(N(C)C)cc2)cc1`, the GI50 is 17.6 µM (inactive) in assay [1]; 10.8 µM (inactive) in [19]; 51.8 µM (inactive) in assay [2]; 42.6 µM (inactive) in assay [3]; 23.8 µM (inactive) in [4]; 26.4 µM (inactive) in [5]. The GI50 in [6] is 20.8 µM (inactive); in assay [8] it was 28.7 µM; in assay [9] it was 19.8 µM (inactive); in assay [10], 36 µM (inactive); in [11], 24.8 µM (inactive); in assay [12], 32.2 µM (inactive). The GI50 in [13] was 64.7 µM (inactive); in [20], 16.6 µM (inactive); in assay [14] it was 29.3 µM (inactive); in [15], 34.4 µM (inactive); in [16], 24.3 µM (inactive); in [17], 24.2 µM (inactive). In addition, the GI50 in assay [18] is 28.6 µM (inactive).

Consider `CN1CCN(C(=S)N(C(=O)c2cccs2)C2CCCCC2)CC1`, for which the GI50 is > 100 µM (inactive) in [1]; > 100 µM (inactive) in [19]; > 100 µM (inactive) in [2]; > 100 µM (inactive) in [4]; > 10 µM (inactive) in [5]; > 100 µM (inactive) in [6]. Besides, the GI50 in assay [8] was > 100 µM; in assay [9] it was > 100 µM (inactive); in assay [10] it was > 100 µM (inactive); in assay [11] it was > 100 µM (inactive); in assay [12], > 100 µM (inactive); in assay [13], > 100 µM (inactive). Moreover, the GI50 in [20], in [14], in assay [15], in assay [16] and in assay [18] was > 100 µM (inactive) each time.

As for `CC(NC(=O)C(CC(=O)OCc1ccccc1)NC(=O)OCc1ccccc1)c1ccccc1` (stereo not given), the GI50 was > 100 µM (inactive) in [1]; 37.8 µM (inactive) in [19]; > 100 µM (inactive) in assay [2]; 35.3 µM (inactive) in assay [3]; 43.5 µM (inactive) in assay [4]; 55.1 µM (inactive) in assay [5]. Besides, the GI50 in assay [6] was > 100 µM (inactive); in assay [8] it was > 100 µM; in assay [9], > 100 µM (inactive); in assay [10], 90.2 µM (inactive); in assay [11], 48 µM (inactive); in assay [12] it was > 100 µM (inactive). Also, the GI50 in assay [13] was > 100 µM (inactive); in assay [20], > 100 µM (inactive); in assay [14] it was > 100 µM (inactive); in assay [15], > 100 µM (inactive); in assay [16] it was > 100 µM (inactive); in assay [18], 73.5 µM (inactive).

Turning to `CCN(CC)/N=C\c1c2ccccc2cc2ccccc12`, the GI50 in [19] is 53.6 µM (inactive); in [2] it was 37.5 µM (inactive); in assay [3], 41.1 µM (inactive); in [5], 39 µM (inactive); in assay [6], 82 µM (inactive); in assay [7], 41 µM (inactive). For the same molecule, the GI50 is 34.6 µM in assay [8]; 39 µM (inactive) in assay [9]; 11.9 µM (inactive) in [10]; > 100 µM (inactive) in assay [11]; 29 µM (inactive) in assay [12]; 55 µM (inactive) in assay [13]. Also, the GI50 in assay [20] is 34.7 µM (inactive); in assay [14], 39.4 µM (inactive); in assay [15] it was 24.5 µM (inactive); in assay [16], 58.9 µM (inactive); in assay [17], 31.8 µM (inactive); in assay [18], 41.6 µM (inactive).

With `CC1(C)C=C(/C=N/Nc2ccc([N+](=O)[O-])cc2)C(C#N)=C(O)C1(C#N)C#N`, the GI50 in [1], in assay [19], in assay [2], in assay [3], in assay [4] and in [5] was > 100 µM (inactive) throughout. The GI50 in assay [6] is > 100 µM (inactive); in [8], > 100 µM; in [9] it was > 100 µM (inactive); in [10] it was > 100 µM (inactive); in assay [11], > 100 µM (inactive); in [12] it was > 100 µM (inactive). Moreover, the GI50 in [13], in assay [20], in assay [14], in [15], in assay [16] and in assay [17] was > 100 µM (inactive) each time. The GI50 in [18] was > 100 µM (inactive).

For `Cc1c(CCCl)c(=O)n2c([nH]c3ccccc32)c1C#N`, the GI50 in assay [1] was 1.73 µM (inactive); in [19], 1.34 µM (inactive); in assay [2] it was 2.33 µM (inactive); in assay [3], 1.45 µM (inactive); in assay [4], 2.02 µM (inactive); in [5], 1.66 µM (inactive). Moreover, the GI50 in assay [6] is 2.21 µM (inactive); in assay [8], 1.57 µM; in assay [9], 1.61 µM (inactive); in assay [10], 1.87 µM (inactive); in assay [12], 0.973 µM (active); in [13], 2.54 µM (inactive). The GI50 in assay [20] is 1.83 µM (inactive); in assay [14], 1.77 µM (inactive); in assay [15] it was 1.79 µM (inactive); in assay [16] it was 1.53 µM (inactive); in assay [17] it was 0.614 µM (active); in assay [18], 1.78 µM (inactive).

As to `CC1=C/C(=N\OCC(=O)O)CC(c2ccc(C(C)C)cc2)C1` (stereo not given), the GI50 was 33.7 µM (inactive) in assay [19]; > 100 µM (inactive) in assay [2]; 38.5 µM (inactive) in [3]; 39.8 µM (inactive) in assay [5]; > 100 µM (inactive) in assay [6]; 23.2 µM in [8]. Further, the GI50 in assay [9] was 34.5 µM (inactive); in assay [12] it was 34.3 µM (inactive); in assay [20], 36.8 µM (inactive); in [14], > 100 µM (inactive); in assay [15], 63.8 µM (inactive); in assay [17], 45.6 µM (inactive). In assay [18], the GI50 is 60.3 µM (inactive).
